Results: patent US7737127B2, “2-propynyl adenosine analogs having A2A agonist activity and compositions thereof” (University of Virginia Patent Foundation, priority 2001, dated 2010)
Read-outs that look alike come from different tables or passages of the source.

Key:
human neutrophils = assay: Human neutrophil oxidative activity, luminol-enhanced chemiluminescence; format: cell-based
Protocol: Chemiluminescence Methods: Lumninol enhanced chemiluminescence, a measure of neutrophil oxidative activity, is dependent upon both superoxide production and mobilization of the granule enzyme myeloperoxidase. The light is emitted from unstable high-energy oxygen species such as hypochlorous acid and singlet oxygen generated by activated neutrophils.
The plate was incubated 5 min (37 C) and then fMLP (50 l in HA; final concentration […]) was added to all wells.
Data are presented as peak chemiluminescence as percent of activity in the absence of an adenosine agonist. The EC50 was determined using PRISM software. All compounds were tested with PMNs from three separate donors.
Lummol-enhanced chemiluminescence, a measure of neutrophil oxidative activity, is dependent upon both superoxide production and mobilization of the lysosomal granule enzyme myeloperoxidase. The light is emitted from unstable high-energy oxygen species generated by activated neutrophils. Purified neutrophils (5-10×10^5/ml) were incubated in Hanks balanced salt solution containing 0.1% human serum albumin (1 ml) with the tested A2A agonist with or without rolipram and with or without tumor necrosis factor-alpha (1 U/ml) for 30 minutes at 37° C. in a shaking water bath. […] Chemiluminescence is reported as relative peak light emitted (=height of the curve) compared to samples with tumor necrosis factor-alpha and without agonist or rolipram.

human A1 AR = target: T1, human A1 AR (Homo sapiens, UniProt P30542); assay: Radioligand competition binding (125I-ABA) to human A1 AR in CHO K1 cell membranes; settings: for Ki: Ki from competition binding, 125I-ABA, CHO K1 cell membranes; for A1/A2A: selectivity ratio A1 over A2A
T1 sequence (P30542 1-326): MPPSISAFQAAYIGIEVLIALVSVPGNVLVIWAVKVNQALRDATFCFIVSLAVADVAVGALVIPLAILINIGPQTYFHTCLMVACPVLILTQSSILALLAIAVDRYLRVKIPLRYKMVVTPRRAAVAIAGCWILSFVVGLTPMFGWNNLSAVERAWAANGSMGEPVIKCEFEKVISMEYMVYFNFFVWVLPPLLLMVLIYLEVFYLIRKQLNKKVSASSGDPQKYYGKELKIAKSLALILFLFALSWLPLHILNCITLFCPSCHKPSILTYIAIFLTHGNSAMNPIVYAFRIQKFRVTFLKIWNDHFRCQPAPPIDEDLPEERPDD
Protocol: (§1) Sf9 cells were cultured in Grace's medium supplemented with 10% fetal bovine serum, 2.5 μg/ml amphotericin B and 50 μg/ml gentamycin in an atmosphere of 50% N2/50% O2. […] Infected cells were harvested 3 days post-infection and washed twice in insect PBS (PBS pH 6.3). Cells were then resuspended in lysis buffer (20 mM HEPES pH 7.5, 150 mM NaCl, 3 mM MgCl2, 1 mM β-mercaptoethanol (BME), 5 μg/mL leupeptin, 5 μg/mL pepstatin A, 1 μg/mL aprotinin, and 0.1 mM PMSF) and snap frozen for storage at −80° C. Cells were thawed on ice, brought to 30 mL total volume in lysis buffer, and burst by N2 cavitation (600 psi for 20 minutes). A low-speed centrifugation was performed to remove any unlysed cells (1000×g for 10 minutes), followed by a high-speed centrifugation (17,000×g for 30 minutes). The pellet from the final centrifugation was homogenized in buffer containing 20 mM HEPES pH 8, 100 mM NaCl, 1% glycerol, 2 μg/mL leupeptin, 2 μg/mL pepstatin A, 2 μg/mL Aprotinin, 0.1 mM PMSF, and 10 μM GDP using a small glass homogenizer followed by passage through a 26 gauge needle. Membranes were aliquoted, snap frozen in liquid N2, and stored at −80° C.
(§2) Binding experiments were performed in triplicate with 5 μg (A2A) or 25 μg (A1 and A3) membrane protein in a total volume of 0.1 mL HE buffer (20 mM HEPES and 1 mM EDTA) with 1 U/mL adenosine deaminase and 5 mM MgCl2 with or without 50 μM GTPγS. Membranes were incubated with radioligands at room temperature for three hours (for agonists) or two hours (for antagonists) in Millipore Multiscreene® 96-well GF/C filter plates and assays were terminated by rapid filtration on a cell harvester (Brandel, Gaithersburg, Md.) followed by 4×150 μl washes over 30 seconds with ice cold 10 mM Tris-HCl, pH 7.4, 10 mM MgCl2.

A3 AR = target: T2, A3 AR (Homo sapiens, UniProt P0DMS8); assay: Radioligand competition binding (125I-ABA) to human A3 AR in HEK 293 cell membranes; settings: for Ki: Ki from competition binding, 125I-ABA, HEK 293 cell membranes; for A3/A2A: selectivity ratio A3 over A2A
T2 sequence (P0DMS8 1-318): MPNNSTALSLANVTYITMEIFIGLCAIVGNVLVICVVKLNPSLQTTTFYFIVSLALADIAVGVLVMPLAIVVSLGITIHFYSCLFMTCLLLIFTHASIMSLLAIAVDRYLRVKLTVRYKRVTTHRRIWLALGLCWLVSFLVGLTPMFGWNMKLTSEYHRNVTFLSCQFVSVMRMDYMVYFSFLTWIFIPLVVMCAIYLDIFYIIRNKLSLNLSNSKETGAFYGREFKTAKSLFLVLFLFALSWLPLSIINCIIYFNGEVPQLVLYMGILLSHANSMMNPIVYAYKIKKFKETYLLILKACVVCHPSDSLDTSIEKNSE
Protocol: as §1, §2

[1] = target: recombinant human A2A receptors (Homo sapiens, UniProt P29274); assay: Radioligand competition binding to recombinant human A2A receptors in Sf9 cell membranes
Chain of recombinant human A2A receptors (P29274 whole entry): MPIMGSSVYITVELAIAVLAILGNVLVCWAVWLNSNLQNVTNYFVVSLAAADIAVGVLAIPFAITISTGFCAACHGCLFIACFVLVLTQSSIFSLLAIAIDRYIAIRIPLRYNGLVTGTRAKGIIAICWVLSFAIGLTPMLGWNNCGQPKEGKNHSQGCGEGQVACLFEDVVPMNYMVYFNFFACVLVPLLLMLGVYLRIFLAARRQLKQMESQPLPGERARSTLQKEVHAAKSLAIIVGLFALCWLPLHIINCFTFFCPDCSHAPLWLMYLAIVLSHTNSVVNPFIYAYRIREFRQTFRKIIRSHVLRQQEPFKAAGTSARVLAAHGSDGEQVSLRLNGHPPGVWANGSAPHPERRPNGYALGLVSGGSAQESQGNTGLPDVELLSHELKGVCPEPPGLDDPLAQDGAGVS
Protocol: as §1, §2

[2] = Homo sapiens, Neutrophil, human neutrophil experiment w/o Rolipram, read-out: PMN oxid (-log EC50) (converted)
[3] = human neutrophil experiment w/Rolipram
[4] = A2A ± SEM, Ki from competition binding, Sf9 cell membranes
[5] = human neutrophil experiment w/o Rolipram
[6] = human neutrophil experiment w/o Rolipram, read-out: PMN oxid (-log EC50) (converted)

For `CCNC(=O)[C@H]1O[C@@H](n2cnc3c(N)nc(C#CC4(O)CCC(C(C)(C)C)CC4)nc32)C(O)C1O` (stereo in doubt) [JR-3203, 5-[6-Amino-2-(4-tert-butyl-1-hydroxycyclohexylethynyl)purin-9-yl]-3,4-dihydroxytetrahydrofuran-2-carboxylic acid ethylamide], the EC50 (human neutrophils; [2]) was 14.1 nM, the “PMN oxid + roli (-log EC50)” value (human neutrophils; [3]) was 9.11 and the Ki (human A1 AR; A1 ± SEM) was 14.7 ± 2.2 nM. For the same molecule, the A1/A2A (human A1 AR) was 9.5, the Ki (A3 AR; A3 ± SEM) was 43.3 ± 18 nM and the A3/A2A (A3 AR) was 28.1. The Ki [1, 4] was 1.5 ± 0.22 nM.
For `CCNC(=O)[C@H]1O[C@@H](n2cnc3c(N)nc(C#CCC4CCC(C(C)=O)CC4)nc32)C(O)C1O` (stereo in doubt) [JR-3119, 5-{2-[3-(4-Acetyl-cyclohexyl)-prop-1-ynyl]-6-aminopurin-9-yl}-3,4-dihydroxytetrahydrofuran-2-carboxylic acid ethylamide], the EC50 (human neutrophils; [2]) was 28.8 nM, the “PMN oxid + roli (-log EC50)” value (human neutrophils; [3]) was 8.7 and the Ki (human A1 AR; A1 ± SEM) was 28.7 ± 3.3 nM. The A1/A2A (human A1 AR) was 11.9, the Ki (A3 AR; A3 ± SEM) was 18.6 ± 4.4 nM and the A3/A2A (A3 AR) was 7.7. For the same molecule, the Ki [1, 4] was 2.4 ± 0.2 nM.
For `CCNC(=O)[C@H]1O[C@@H](n2cnc3c(N)nc(C#CC4(O)CCCCC4C)nc32)C(O)C1O` (single isomer, unassigned) [JR-3181A, 5-[6-Amino-2-(1-hydroxy-2-methyl-cyclohexylethynyl)-purin-9-yl]-3,4-dihydroxytetrahydrofuran-2-carboxylic acid ethylamide], the “PMN oxid + roli (-log EC50)” value (human neutrophils; [3]) was 8.77, the “PMN oxid (-log EC50)” value (human neutrophils; [5]) was 7.73 and the Ki (human A1 AR; A1 ± SEM) was 44.9 ± 17.2 nM. It also gave an A1/A2A (human A1 AR) of 38.1, a Ki (A3 AR; A3 ± SEM) of 69.7 ± 43 nM and an A3/A2A (A3 AR) of 59.1. The Ki [1, 4] was 1.2 ± 0.15 nM.
For `OC[C@H]1O[C@@H](n2cnc3c(NC4CCCC4)ncnc32)[C@H](O)[C@@H]1O` [CPA, N^6-cyclopentyladenosine, reference compound], the EC50 (human neutrophils; [2]) was 93300 nM, the “PMN oxid + roli (-log EC50)” value (human neutrophils; [3]) was 7.06 and the Ki (A3 AR; A3 ± SEM) was 93 ± 7 nM. It also gave a Ki ([1]; A2A ± SEM) of 19.8 ± 3.2 nM.
`CCNC(=O)[C@H]1O[C@@H](n2cnc3c(N)nc(C#CC4(O)CC(C)(C)CC(C)(C)C4)nc32)C(O)C1O` (stereo in doubt) [JR-3163, 5-[6-Amino-2-(1-hydroxy-3,3,5,5-tetramethyl-cyclohexylethynyl)-purin-9-yl]-3,4-dihydroxytetrahydrofuran-2-carboxylic acid ethylamide] was tested, and the EC50 (human neutrophils; [2]) was 537 nM, the “PMN oxid + roli (-log EC50)” value (human neutrophils; [3]) was 7.67 and the Ki (human A1 AR; A1 ± SEM) was 784 ± 94 nM. It also gave an A1/A2A (human A1 AR) of 70.6, a Ki (A3 AR; A3 ± SEM) of 152 ± 62 nM and an A3/A2A (A3 AR) of 13.7. For the same molecule, the Ki [1, 4] was 11.1 ± 2.8 nM.
In the case of `CCNC(=O)[C@H]1O[C@@H](n2cnc3c(N)nc(C#CC4(O)CCC(CC)CC4)nc32)C(O)C1O` (stereo in doubt) [JR-3149, 5-[6-Amino-2-(4-ethyl-1-hydroxy-cyclohexylethynyl)-purin-9-yl]-3,4-dihydroxytetrahydrofuran-2-carboxylic acid ethylamide], the EC50 (human neutrophils; [2]) is reported as 2.19 nM, the “PMN oxid + roli (-log EC50)” value (human neutrophils; [3]) is reported as 9.63 and the Ki (human A1 AR; A1 ± SEM) is reported as 3.8 ± 0.4 nM. The A1/A2A (human A1 AR) was 7.0, the Ki (A3 AR; A3 ± SEM) was 7.3 ± 1.9 nM and the A3/A2A (A3 AR) was 13.5. The Ki [1, 4] was 0.5 ± 0.05 nM.
For `CCNC(=O)[C@H]1O[C@@H](n2cnc3c(N)nc(C#CCC4CCC(C(C)O)CC4)nc32)C(O)C1O` (stereo in doubt) [JR-3121, 5-(6-Amino-2-{3-[4-(1-hydroxy-ethyl)-cyclohexyl]-prop-1-ynyl}-purin-9-yl)-3,4-dihydroxytetrahydrofuran-2-carboxylic acid ethylamide], the EC50 (human neutrophils; [2]) was 105 nM, the “PMN oxid + roli (-log EC50)” value (human neutrophils; [3]) was 8.31 and the Ki (human A1 AR; A1 ± SEM) was 52.3 ± 7.6 nM. For the same molecule, the A1/A2A (human A1 AR) was 9.3, the Ki (A3 AR; A3 ± SEM) was 71 ± 16 nM and the A3/A2A (A3 AR) was 12.6. The Ki [1, 4] was 5.7 ± 0.6 nM.
`CC(=O)OCC1CCC(CC#Cc2nc(N)c3ncn(C4OC(CO)C(O)C4O)c3n2)CC1` (stereo not shown) [JR-2147] was tested, and the “PMN oxid + roli (-log EC50)” value (human neutrophils; [3]) was 8.57, the “PMN oxid (-log EC50)” value (human neutrophils; [5]) was 7.13 and the Ki (human A1 AR; read-out: A1 ± SEM) was 17.5 ± 5.2 nM. It also gave an A1/A2A (human A1 AR) of 19.0, a Ki (A3 AR; read-out: A3 ± SEM) of 89 ± 21 nM and an A3/A2A (A3 AR) of 96.7. It also gave a Ki ([1]; read-out: A2A ± SEM, Ki from competition binding, Sf9 cell membranes) of 0.9 ± 0.38 nM.
`CCNC(=O)[C@H]1O[C@@H](n2cnc3c(N)nc(C#CCC4CCC(C(=O)OC)CC4)nc32)C(O)C1O` (stereo in doubt) [ATL-146e, 4-{3-[6-Amino-9-(5-ethylcarbamoyl-3,4-dihydroxytetrahydrofuran-2-yl)-9H-purin-2-yl]-prop-2-ynyl}-cyclohexanecarboxylic acid methyl ester] was tested, and the “PMN oxid + roli (-log EC50)” value (human neutrophils; [3]) was 9.33, the EC50 (human neutrophils; [6]) was 3.55 nM and the Ki (human A1 AR; A1 ± SEM) was 77 ± 12 nM. For the same molecule, the A1/A2A (human A1 AR) was 154.0, the Ki (A3 AR; A3 ± SEM) was 45 ± 15 nM and the A3/A2A (A3 AR) was 90.0.
`CNC(=O)[C@H]1O[C@@H](n2cnc3c(NCc4cccc(I)c4)nc(Cl)nc32)[C@H](O)[C@@H]1O` [CI-IBMECA, N^6-3-iodo-2-chlorobenzyladenosine-5′-N-methyluronamide, reference compound] gave an EC50 (human neutrophils; [6]) of 45700 nM.
Work on `CCNC(=O)[C@H]1O[C@@H](n2cnc3c(N)nc(NCCc4ccc(CCC(=O)O)cc4)nc32)[C@H](O)[C@@H]1O` [CGS-21680, 2-[4-(2-carboxyethyl)phenethylamino]-5′-N-ethyl-carboxamidoadenosine, reference compound] yielded an EC50 (human neutrophils; Homo sapiens, Neutrophil, human neutrophil experiment w/Rolipram, read-out: PMN oxid + roli (-log EC50) (converted)) of 2.82 nM and an EC50 (human neutrophils; [2]) of 30.2 nM.
For `CCNC(=O)[C@H]1O[C@@H](n2cnc3c(N)nc(C#CC[C@H]4CC[C@H](COC(=O)OCc5ccccc5)CC4)nc32)C(O)C1O` (stereo partly drawn) [ATL216, N-Ethyl 2-{3-[trans-4-(benzoxycarbonyloxamethyl)-cyclohexyl]-1-propyn-1-yl}adenosine-5′-uronamide], the EC50 (human neutrophils; [2]) was 13 nM and the Ki [1, 4] was 2.7 nM.
Molecule `CCNC(=O)[C@H]1O[C@@H](n2cnc3c(N)nc(C#CC[C@H]4CC[C@H](COC(=O)OCC(C)C)CC4)nc32)C(O)C1O` (stereo partly drawn) [ATL215, N-Ethyl 2-{3-[trans-4-(isobutoxyoxycarbonyloxamethyl)-cyclohexyl]-1-propyn-1-yl}adenosine-5′-uronamide] has an EC50 (human neutrophils; [2]) of 20 nM and a Ki [1, 4] of 4.8 nM.
For `CNC(=O)[C@H]1O[C@@H](n2cnc3c(NCc4cccc(I)c4)ncnc32)[C@H](O)[C@@H]1O` [IBMECA, N^6-3-iodobenzyladenosine-5′-N-methyluronamide, reference compound], the “PMN oxid + roli (-log EC50)” value (human neutrophils; [3]) was 8.01 and the EC50 (human neutrophils; [6]) was 324 nM.
`CCNC(=O)[C@H]1O[C@@H](n2cnc3c(N)ncnc32)[C@H](O)[C@@H]1O` [NECA, 5′-N-ethylcarboxamidoadenosine, reference compound] was tested, and the “PMN oxid + roli (-log EC50)” value (human neutrophils; [3]) was 8.95 and the EC50 (human neutrophils; [6]) was 15.1 nM.
`CCNC(=O)[C@H]1O[C@@H](n2cnc3c(N)nc(C#CCN4CC5CC4CN5C(=O)OC(C)(C)C)nc32)C(O)C1O` (stereo in doubt) [JR-4015, 5-{3-[6-Amino-9-(5-ethylcarbamoyl-3,4-dihydroxytetrahydrofuran-2-yl)-9H-purin-2-yl]prop-2-ynyl}-2,5-diazabicyclo[2.2.1]heptane-2-carboxylic acid tert-butyl ester] gave an A1/A2A (human A1 AR) of 0.0, an A3/A2A (A3 AR) of 0.0 and a Ki [1] of 4.25 ± 1 nM.
For `CCNC(=O)[C@H]1O[C@@H](n2cnc3c(N)nc(C#CC4(O)CCCC4)nc32)C(O)C1O` (stereo in doubt) [JR-3135, 5-[6-Amino-2-(1-hydroxy-cyclopentylethynyl)-purin-9-yl]-3,4-dihydroxytetrahydrofuran-2-carboxylic acid ethylamide], the EC50 (human neutrophils; [2]) was 1.26 nM, the “PMN oxid + roli (-log EC50)” value (human neutrophils; [3]) was 9.6 and the Ki (human A1 AR; A1 ± SEM) was 5 ± 1.3 nM. For the same molecule, the Ki (A3 AR; A3 ± SEM) was 3.5 ± 1.2 nM.
`OC[C@H]1O[C@@H](n2cnc3c(NC4CCCC4)nc(Cl)nc32)[C@H](O)[C@@H]1O` [CCPA, 2-chloro-N^6-cyclopentyladenosine, reference compound] was tested, and the “PMN oxid + roli (-log EC50)” value (human neutrophils; [3]) was 7.26 and the EC50 (human neutrophils; [6]) was 4270 nM.
